The source made the active and inactive calls. The calls are words filed in the database; no cut-off is given here.
Columns and labels:
[1] = Upregulation of BMP-2 expression in mouse MC3T3-E1 cells at 4 uM after 24 hrs by luciferase reporter gene assay relative to control; format: functional, cell-based
Rattus norvegicus [2] = assay: Toxicity in glucocorticoid-induced Wistar rat osteoporosis model assessed as effect on blood urea nitrogen level at 30 mg/kg/day, po administered six times a week for 3 months; format: organism-based; parameters: route oral; settings: in vivo
Rattus norvegicus [3] = assay: Toxicity in glucocorticoid-induced Wistar rat osteoporosis model assessed as effect on platelets at 30 mg/kg/day, po administered six times a week for 3 months; format: organism-based; parameters: route oral; settings: in vivo
Rattus norvegicus [4] = assay: Antiosteoporotic activity in glucocorticoid-induced Wistar rat osteoporosis model assessed as increase in trabecula area at 30 mg/kg/day, po administered six times a week for 3 months by toluidine blue staining-based light microscopic analysis relative to dexamethasone; format: functional, organism-based
Rattus norvegicus [5] = assay: Toxicity in glucocorticoid-induced Wistar rat osteoporosis model assessed as effect on red blood cell distribution width at 30 mg/kg/day, po administered six times a week for 3 months; format: organism-based; parameters: route oral; settings: in vivo
Mus musculus [6] = assay: Acute toxicity in Kunming mouse assessed as shiny fur at 500 mg/kg, po administered for 3 days measured during compound dosing and following 14 days; format: organism-based; parameters: dose 500 mg/kg, route oral; settings: in vivo, 336 h
Rattus norvegicus [7] = assay: Antiosteoporotic activity in glucocorticoid-induced Wistar rat osteoporosis model assessed as increase in trabecula thickness at 30 mg/kg/day, po administered six times a week for 3 months by toluidine blue staining-based light microscopic analysis relative to dexamethasone; format: functional, organism-based
Rattus norvegicus [8] = assay: Toxicity in glucocorticoid-induced Wistar rat osteoporosis model assessed as aspartate transaminase level at 30 mg/kg/day, po administered six times a week for 3 months (reference value: 177.55 +/- 116.98 U/L); format: organism-based; parameters: route oral; settings: in vivo
Rattus norvegicus [9] = assay: Toxicity in glucocorticoid-induced Wistar rat osteoporosis model assessed as effect on total protein level at 30 mg/kg/day, po administered six times a week for 3 months; format: organism-based; parameters: route oral; settings: in vivo
Rattus norvegicus [10] = assay: Toxicity in glucocorticoid-induced Wistar rat osteoporosis model assessed as neutrophilic granulocytes level at 30 mg/kg/day, po administered six times a week for 3 months (reference value: 31.95 +/- 8.33%); format: organism-based; parameters: route oral; settings: in vivo
Rattus norvegicus [11] = assay: Toxicity in glucocorticoid-induced Wistar rat osteoporosis model assessed as lymph level at 30 mg/kg/day, po administered six times a week for 3 months (reference value: 50.35 +/- 12.96%); format: organism-based; parameters: route oral; settings: in vivo
Rattus norvegicus [12] = assay: Toxicity in glucocorticoid-induced Wistar rat osteoporosis model assessed as effect on red blood cells at 30 mg/kg/day, po administered six times a week for 3 months; format: organism-based; parameters: route oral; settings: in vivo
[13] = Acute toxicity in po dosed Kunming mouse administered for 3 days measured during compound dosing and following 14 days; format: organism-based; settings: in vivo
Rattus norvegicus [14] = assay: Toxicity in glucocorticoid-induced Wistar rat osteoporosis model assessed as effect on glucose level at 30 mg/kg/day, po administered six times a week for 3 months; format: organism-based; parameters: route oral; settings: in vivo
Mus musculus [15] = assay: Acute toxicity in Kunming mouse assessed as behavioral changes at 500 mg/kg, po administered for 3 days measured during compound dosing and following 14 days; format: organism-based; parameters: dose 500 mg/kg, route oral; settings: in vivo, 336 h
Rattus norvegicus [16] = assay: Antiosteoporotic activity in glucocorticoid-induced Wistar rat osteoporosis model assessed as increase in trabecula connectivity at 30 mg/kg/day, po administered six times a week for 3 months by toluidine blue staining-based light microscopic analysis relative to dexamethasone; format: functional, organism-based
Rattus norvegicus [17] = assay: Toxicity in glucocorticoid-induced Wistar rat osteoporosis model assessed as effect on creatinine level at 30 mg/kg/day, po administered six times a week for 3 months; format: organism-based; parameters: route oral; settings: in vivo
Rattus norvegicus [18] = assay: Toxicity in glucocorticoid-induced Wistar rat osteoporosis model assessed as triglycerides level at 30 mg/kg/day, po administered six times a week for 3 months (reference value: 1.13 +/- 0.69 mmol/L); format: organism-based; parameters: route oral; settings: in vivo
Rattus norvegicus [19] = assay: Antiosteoporotic activity in glucocorticoid-induced Wistar rat osteoporosis model assessed as trabecula resorption surface at 30 mg/kg/day, po administered six times a week for 3 months by fluorescence assay (reference value: 7.22 +/- 2.04%); format: functional
Rattus norvegicus [20] = assay: Toxicity in glucocorticoid-induced Wistar rat osteoporosis model assessed as effect on albumin level at 30 mg/kg/day, po administered six times a week for 3 months; format: organism-based; parameters: route oral; settings: in vivo
Rattus norvegicus [21] = assay: Toxicity in glucocorticoid-induced Wistar rat osteoporosis model assessed as effect on mean corpuscular volume at 30 mg/kg/day, po administered six times a week for 3 months; format: organism-based; parameters: route oral; settings: in vivo
Rattus norvegicus [22] = assay: Toxicity in glucocorticoid-induced Wistar rat osteoporosis model assessed as effect on total bilirubin level at 30 mg/kg/day, po administered six times a week for 3 months; format: organism-based; parameters: route oral; settings: in vivo
Rattus norvegicus [23] = assay: Antiosteoporotic activity in glucocorticoid-induced Wistar rat osteoporosis model assessed as trabecular bone volume at 30 mg/kg/day, po administered six times a week for 3 months by fluorescence assay (reference value: 33.09 +/- 5.15%); format: functional, Trabecula
Rattus norvegicus [24] = assay: Antiosteoporotic activity in glucocorticoid-induced Wistar rat osteoporosis model assessed as increase in trabecula number at 30 mg/kg/day, po administered six times a week for 3 months by toluidine blue staining-based light microscopic analysis relative to dexamethasone; format: functional, organism-based
Rattus norvegicus [25] = assay: Antiosteoporotic activity in glucocorticoid-induced Wistar rat osteoporosis model assessed as mineral apposition rate at 30 mg/kg/day, po administered six times a week for 3 months by fluorescence assay (reference value: 1.06 +/- 0.27 micrometer/day); format: functional
Rattus norvegicus [26] = assay: Antiosteoporotic activity in glucocorticoid-induced Wistar rat osteoporosis model assessed as trabecula formation surface at 30 mg/kg/day, po administered six times a week for 3 months by fluorescence assay (reference value: 7.82 +/- 2.46%); format: functional
Rattus norvegicus [27] = assay: Toxicity in glucocorticoid-induced Wistar rat osteoporosis model assessed as effect on hemoglobin at 30 mg/kg/day, po administered six times a week for 3 months; format: organism-based; parameters: route oral; settings: in vivo
Rattus norvegicus [28] = assay: Toxicity in glucocorticoid-induced Wistar rat osteoporosis model assessed as effect on mean corpuscular hemoglobin concentration at 30 mg/kg/day, po administered six times a week for 3 months; format: organism-based; parameters: route oral; settings: in vivo
Rattus norvegicus [29] = assay: Toxicity in glucocorticoid-induced Wistar rat osteoporosis model assessed as alanine transaminase level at 30 mg/kg/day, po administered six times a week for 3 months (reference value: 43.73 +/- 36.21 U/L); format: organism-based; parameters: route oral; settings: in vivo
Rattus norvegicus [30] = assay: Toxicity in glucocorticoid-induced Wistar rat osteoporosis model assessed as effect on red blood cell specific volume at 30 mg/kg/day, po administered six times a week for 3 months; format: organism-based; parameters: route oral; settings: in vivo
Rattus norvegicus [31] = assay: Toxicity in glucocorticoid-induced Wistar rat osteoporosis model assessed as white blood cells at 30 mg/kg/day, po administered six times a week for 3 months (reference value: 6.28 +/- 2.78 x 10^9/L); format: organism-based; parameters: route oral; settings: in vivo
Rattus norvegicus [32] = assay: Antiosteoporotic activity in glucocorticoid-induced Wistar rat osteoporosis model assessed as densed trabecula at 30 mg/kg/day, po administered six times a week for 3 months by toluidine blue staining-based light microscopic analysis relative to dexamethasone; format: functional, organism-based

CCOC(=O)c1cc2c(OC)cccc2o1
Activity [1]: 60%

COC(=O)c1ccc2sc(C(C)O)cc2c1 (centres undefined)
Activity [1]: 56.9%

C[S+]([O-])CC(O)c1cc2ccccc2s1 (centres undefined)
Activity [1]: -3.6%

CCOC(=O)c1cc2ccc(OC)cc2o1
Activity (Rattus norvegicus [2]): Non-toxic | Activity (Rattus norvegicus [3]): Non-toxic | Activity (Rattus norvegicus [4]): Active | Activity (Rattus norvegicus [5]): Non-toxic | Activity (Mus musculus [6]): Non-toxic | Activity (Rattus norvegicus [7]): Active | Activity (Rattus norvegicus [8]): 110.08 U/L | Activity (Rattus norvegicus [9]): Non-toxic | Activity (Rattus norvegicus [10]): 38.96% | Activity (Rattus norvegicus [11]): 46.18% | Activity (Rattus norvegicus [12]): Non-toxic | LD50 at 336 h [13]: > 500 mg/kg | Activity (Rattus norvegicus [14]): Non-toxic | Activity (Mus musculus [15]): Non-toxic | Activity (Rattus norvegicus [16]): Active | Activity (Rattus norvegicus [17]): Non-toxic | Activity (Rattus norvegicus [18]): 0.38 mmol/L | Activity (Rattus norvegicus [19]): 8.23% | Activity (Rattus norvegicus [20]): Non-toxic | Activity (Rattus norvegicus [21]): Non-toxic | Activity (Rattus norvegicus [22]): Non-toxic | Activity (Rattus norvegicus [23]): 30.8% | Activity (Rattus norvegicus [24]): Active | Activity (Rattus norvegicus [25]): 1.29 micrometer/day | Activity (Rattus norvegicus [26]): 7.13% | Activity (Rattus norvegicus [27]): Non-toxic | Activity [1]: 89.4% | Activity (Rattus norvegicus [28]): Non-toxic | Activity (Rattus norvegicus [29]): 27.67 U/L | Activity (Rattus norvegicus [30]): Non-toxic | Activity (Rattus norvegicus [31]): 2.83 ×10⁹ /L

COc1ccc2oc(C(=O)C[S+](C)[O-])cc2c1 (centres undefined)
Activity [1]: 2.1%

COc1ccc2oc(C(=O)CS(C)(=O)=O)cc2c1
Activity [1]: 12.9%

COC(=O)c1ccc2cc(C(C)O)sc2c1 (centres undefined)
Activity [1]: 81.4%

COc1ccc2cc(C(=O)C[S+](C)[O-])oc2c1 (centres undefined)
Activity [1]: 7.7%

CCOC(=O)c1cc2cc3c(cc2s1)OCO3
Activity (Rattus norvegicus [2]): Non-toxic | Activity (Rattus norvegicus [3]): Non-toxic | Activity (Rattus norvegicus [5]): Non-toxic | Activity (Mus musculus [6]): Non-toxic | Activity (Rattus norvegicus [8]): 114.82 U/L | Activity (Rattus norvegicus [9]): Non-toxic | Activity (Rattus norvegicus [10]): 41.49% | Activity (Rattus norvegicus [11]): 46.29% | Activity (Rattus norvegicus [12]): Non-toxic | LD50 at 336 h [13]: > 500 mg/kg | Activity (Rattus norvegicus [14]): Non-toxic | Activity (Mus musculus [15]): Non-toxic | Activity (Rattus norvegicus [17]): Non-toxic | Activity (Rattus norvegicus [18]): 0.34 mmol/L | Activity (Rattus norvegicus [32]): Active | Activity (Rattus norvegicus [19]): 9.43% | Activity (Rattus norvegicus [20]): Non-toxic | Activity (Rattus norvegicus [21]): Non-toxic | Activity (Rattus norvegicus [22]): Non-toxic | Activity (Rattus norvegicus [23]): 22.07% | Activity (Rattus norvegicus [25]): 0.95 micrometer/day | Activity (Rattus norvegicus [26]): 5.72% | Activity (Rattus norvegicus [27]): Non-toxic | Activity (Rattus norvegicus [28]): Non-toxic | Activity (Rattus norvegicus [29]): 28.27 U/L | Activity (Rattus norvegicus [30]): Non-toxic | Activity (Rattus norvegicus [31]): 3.27 ×10⁹ /L

CCOC(=O)c1ccc2cc(C(=O)/C=C/c3ccc(OC)cc3)sc2c1
Activity [1]: 12.2%

CC(=O)c1cc2cc(C(=O)O)ccc2s1
Activity (Rattus norvegicus [2]): Non-toxic | Activity (Rattus norvegicus [3]): Non-toxic | Activity (Rattus norvegicus [5]): Non-toxic | Activity (Mus musculus [6]): Non-toxic | Activity (Rattus norvegicus [8]): 103.17 U/L | Activity (Rattus norvegicus [9]): Non-toxic | Activity (Rattus norvegicus [10]): 47.71% | Activity (Rattus norvegicus [11]): 36.73% | Activity (Rattus norvegicus [12]): Non-toxic | LD50 at 336 h [13]: > 500 mg/kg | Activity (Rattus norvegicus [14]): Non-toxic | Activity (Mus musculus [15]): Non-toxic | Activity (Rattus norvegicus [17]): Non-toxic | Activity (Rattus norvegicus [18]): 0.62 mmol/L | Activity (Rattus norvegicus [32]): Active | Activity (Rattus norvegicus [19]): 10.3% | Activity (Rattus norvegicus [20]): Non-toxic | Activity (Rattus norvegicus [21]): Non-toxic | Activity (Rattus norvegicus [22]): Non-toxic | Activity (Rattus norvegicus [23]): 23.13% | Activity (Rattus norvegicus [25]): 1.03 micrometer/day | Activity (Rattus norvegicus [26]): 5.03% | Activity (Rattus norvegicus [27]): Non-toxic | Activity [1]: 93.2% | Activity (Rattus norvegicus [28]): Non-toxic | Activity (Rattus norvegicus [29]): 26.67 U/L | Activity (Rattus norvegicus [30]): Non-toxic | Activity (Rattus norvegicus [31]): 3.31 ×10⁹ /L
